From patent US20230250096A1, “SUBSTITUTED PHENYL-1H-PYRROLO[2,3-c] PYRIDINE DERIVATIVES” (Janssen Pharmaceutica NV, priority 2021, published 2023)
Read-outs that look alike come from different tables or passages of the source.

Key:
[1] = biological target: T1, menin/MLL (terbium chelate-labeled menin, FITC-MBM1 peptide) (Homo sapiens, UniProt O00255, T541A); experiment: Menin/MLL homogenous time-resolved fluorescence (HTRF) assay; assay type: binding; conditions: 30 min incubation
T1 construct: Menin (a.a 1-610-6xhis tag, 2.3 mg/mL in 20 mM Hepes)
T1 sequence (O00255 with tags, fused parts or gaps T541A): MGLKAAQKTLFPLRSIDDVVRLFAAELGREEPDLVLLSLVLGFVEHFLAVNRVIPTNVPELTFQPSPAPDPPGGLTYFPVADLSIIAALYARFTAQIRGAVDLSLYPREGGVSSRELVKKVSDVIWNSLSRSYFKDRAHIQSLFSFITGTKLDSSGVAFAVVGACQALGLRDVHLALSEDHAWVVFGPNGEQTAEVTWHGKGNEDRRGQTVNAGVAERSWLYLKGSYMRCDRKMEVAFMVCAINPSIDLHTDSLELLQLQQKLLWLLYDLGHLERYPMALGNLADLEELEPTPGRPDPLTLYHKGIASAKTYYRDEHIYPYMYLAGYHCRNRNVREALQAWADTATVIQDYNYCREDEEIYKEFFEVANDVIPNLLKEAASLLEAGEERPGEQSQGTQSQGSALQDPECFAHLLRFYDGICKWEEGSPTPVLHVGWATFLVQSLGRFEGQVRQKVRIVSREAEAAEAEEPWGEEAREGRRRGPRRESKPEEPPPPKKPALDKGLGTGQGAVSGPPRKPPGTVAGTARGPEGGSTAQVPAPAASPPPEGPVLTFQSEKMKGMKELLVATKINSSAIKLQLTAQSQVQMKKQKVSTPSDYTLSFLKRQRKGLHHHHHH
In short: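 Competition binding read by time-resolved FRET (FITC 520 nm over terbium 490 nm) after compound meets labeled menin 1-610-His […] for 30 min, then FITC-MBM1 (75 nM) for 15 min, ambient temperature, 0.5% DMSO. Eleven-point four-fold dilutions, usually starting at 10 μM, fitted to four-parameter curves for IC50.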

[2] = tested on: MOLM14 cells; experiment: Proliferation assay (spheroid confluence, 8 days), MOLM14; assay type: cell-based, human; conditions: read-out: spheroid assay_MOLM14 IC50
Method: The anti-proliferative effect of menin/MLL protein/protein interaction inhibitor test compounds was assessed in human leukemia cell lines. The cell line MOLM14 harbors a MLL translocation and expresses the MLL fusion protein MLL-AF9, respectively, as well as the wildtype protein from the second allele. OCI-AML3 cells that carry the NPM1c gene mutation were also tested. […] KO-52 was used as a control cell line containing two MLL (KMT2A) wildtype alleles in order to exclude compounds that display general cytotoxic effects.
MOLM14 cells were cultured in RPMI-1640 (Sigma Aldrich) supplemented with 10% heat-inactivated fetal bovine serum (HyClone), 2 mM L-glutamine (Sigma Aldrich) and 50 μg/ml gentamycin (Gibco). KO-52 and OCI-AML3 cell lines were propagated in alpha-MEM (Sigma Aldrich) supplemented with 20% heat-inactivated fetal bovine serum (HyClone), 2 mM L-glutamine (Sigma Aldrich) and 50 μg/ml gentamycin (Gibco).
In order to assess the anti-proliferative effects, 200 MOLM14 cells, 200 OCI-AML3 cells or 300 KO-52 cells were seeded in 200 μl media per well in 96-well round bottom, ultra-low attachment plates (Costar, catalogue number 7007). Cell seeding numbers were chosen based on growth curves to ensure linear growth throughout the experiment. Test compounds were added at different concentrations and the DMSO content was normalized to 0.3%. Cells were incubated for 8 days at 37° C. and 5% CO2. Spheroid like growth was measured in real-time by live-cell imaging (IncuCyteZOOM, Essenbio, 4×objective) acquiring images at day 8. Confluence (%) as a measure of spheroid size was determined using an integrated analysis tool.
In order to determine the effect of the test compounds over time, the confluence in each well as a measure of spheroid size, was calculated. Confluence of the highest dose of a reference compound was used as baseline for the LC (Low control) and the confluence of DMSO treated cells was used as 0% cytotoxicity (High Control, HC).
Absolute IC50 values were calculated as percent change in confluence as follows:
LC=Low Control: cells treated with e.g. 1 μM of the cytotoxic agent staurosporin, or e.g. cells treated with a high concentration of an alternative reference compound
HC=High Control: Mean confluence (%) (DMSO treated cells)
% Effect=100−(100*(Sample−LC)/(HC−LC))
GraphPad Prism (version 7.00) was used to calculate the IC50. Dose-response equation was used for the plot of % Effect vs Log10 compound concentration with a variable slope and fixing the maximum to 100% and the minimum to 0%.

[3] = tested on: MEIS1 mRNA expression; experiment: MEIS1 mRNA expression assay (Quantigene Singleplex) in MOLM14 cells; assay type: cell-based, human; conditions: 48 hours incubation
In short: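 Read-out: MEIS1 transcript counts, background-subtracted and divided by RPL28, expressed as fold change over DMSO-treated cells, then dose-response modelled for IC50. MOLM14 cells (3,750/well) received graded compound for 48 h before lysis and QuantiGene hybridization at 55 °C.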

IC50 [1] | IC50 ([2]; Homo sapiens, MOLM-14, MOLM14) | IC50 ([3]; Homo sapiens, MOLM-14, 48 h) | IC50 ([2]; MOLM14) | IC50 [3] | SMILES
0.019 nM | 3 nM | 10 nM |  |  | Cc1cncc2c1c(CC1CN(C[C@H]3CC[C@H](C(=O)NC4CC4)CC3)C1)cn2-c1ccc(F)cc1C(=O)N(C)C(C)C [Compound 159]
0.195 nM | 87 nM | ~220 nM |  |  | Cc1cncc2c1c(C[C@@H]1CCN(C[C@@H]3CCNC(=O)CC3)C1)cn2-c1ccc(F)cc1C(=O)N(C)C(C)C (single isomer, unassigned) [Compound 169b]
0.227 nM | 113 nM | 221 nM |  |  | Cc1cncc2c1c(C[C@H]1CCN([C@H](C)C3CCOCC3)C1)cn2-c1ccc(F)cc1C(=O)N(C)C(C)C (single isomer, unassigned) [Compound 49a]
0.05 nM | 12 nM | 18 nM |  |  | CC(=O)N1CCC(C)(CN2CC[C@H](Cc3cn(-c4ccc(F)cc4C(=O)N(C)C(C)C)c4cncc(C)c34)C2)CC1 (single isomer, unassigned) [Compound 122]
0.051 nM | 49 nM | 54 nM |  |  | Cc1cncc2c1c(CC1CN(C[C@H]3CC[C@H](C(=O)NCCC#N)CC3)C1)cn2-c1ccc(F)cc1C(=O)N(C)C(C)C [Compound 155]
0.056 nM | 5 nM | 32 nM |  |  | CON(C)C(=O)N1CCC(CN2CC[C@@H](Cc3cn(-c4ccc(F)cc4C(=O)N(C)C(C)C)c4cncc(C)c34)C2)CC1 [Compound 173]
0.055 nM | 6 nM | 19 nM |  |  | [2H]C([2H])([2H])N(C(=O)c1cc(F)ccc1-n1cc(C[C@@H]2CCN(CC3CCN(C(C)=O)CC3)C2)c2c(C)cncc21)C(C)C [Compound 314]
0.257 nM | 232 nM | 413 nM |  |  | COCC1CCCN1C(=O)c1cc(F)ccc1-n1cc(C[C@@H]2CCN(CC3CCN(C(C)=O)CC3)C2)c2c(C)cncc21 (some centres unmarked) [Compound 321]
0.337 nM | 1050 nM | 1340 nM |  |  | CC(=O)N1CCC(CN2CC[C@@H](Cc3cn(-c4ccc(F)cc4C(=O)N4CCC(O)C4C)c4cncc(C)c34)C2)CC1 (stereo in doubt) [Compound 325]
~0.17 nM | 15 nM | 49 nM |  |  | CNC(=O)[C@H]1CC[C@H](CN2CC(C)(Cc3cn(-c4ccc(F)cc4C(=O)N(C)C(C)C)c4cncc(C)c34)C2)CC1 [Compound 140]
0.166 nM | 79 nM | 358 nM |  |  | Cc1cncc2c1c(C[C@@H]1CCN(CC3CCOCC3)C1)cn2-c1ccc(F)cc1C(=O)N1C[C@H](O)C[C@H]1C [Compound 359]
0.505 nM | 424 nM | > 1000 nM |  |  | CNC(=O)[C@H]1CC[C@H]([C@@H](C)N2CC(Cc3cn(-c4ccc(F)cc4C(=O)N(C)C(C)C)c4cncc(C)c34)C2)CC1 (single isomer, unassigned) [Compound 162]
0.43 nM | 1470 nM | > 1000 nM |  |  | CC(=O)N1CCC([C@@H](C)N2CC(Cc3cn(-c4ccc(F)cc4C(=O)N(C)C(C)C)c4cncc(C)c34)C2)CC1 (single isomer, unassigned) [Compound 150]
0.581 nM | 337 nM | > 1000 nM |  |  | Cc1cncc2c1c(C[C@@H]1CCN(CC3CCN(C)C(=O)C3)C1)cn2-c1ccc(F)cc1C(=O)N(C)C(C)C (mixture of isomers) [Compound 171]
0.02 nM | 2 nM | 6 nM |  |  | Cc1cncc2c1c(C[C@H]1CCN(CC3CCN(C(=O)NC4CC4)CC3)C1)cn2-c1ccc(F)cc1C(=O)N(C)C(C)C [Compound 157]
0.067 nM | 12 nM | 19 nM |  |  | Cc1cncc2c1c(C[C@@H]1CCN(CC3CCOCC3)C1)cn2-c1ccc(F)cc1C(=O)N1CCC[C@@]1(C)CO (single isomer, unassigned) [Compound 362b]
0.091 nM | 18 nM | 32 nM |  |  | Cc1cncc2c1c(CC1CCN(CC3CCN(C(=O)C(C)(C)C#N)CC3)C1)cn2-c1ccc(F)cc1C(=O)N(C)C(C)C (single isomer, unassigned) [Compound 126]
0.14 nM | 91 nM | 244 nM |  |  | COC(=O)[C@H]1CC[C@H](CN2CC[C@@H](Cc3cn(-c4ccc(F)cc4C(=O)N(C)C(C)C)c4cncc(C)c34)C2)CC1 [Compound 154]
0.209 nM | 154 nM | 249 nM |  |  | CNC(=O)[C@H]1CC[C@H](CN2CC([C@@H](C)c3cn(-c4ccc(F)cc4C(=O)N(C)C(C)C)c4cncc(C)c34)C2)CC1 (single isomer, unassigned) [Compound 164a]
0.167 nM | 53 nM | 256 nM |  |  | Cc1cncc2c1c(C[C@@H]1CCN(C3CCN(S(C)(=O)=O)CC3)C1)cn2-c1ccc(F)cc1C(=O)N(C)C(C)C [Compound 161]
1.33 nM | 234 nM | ~1050 nM |  |  | CC(=O)N1CC([C@@H](C)N2CC[C@@H](Cc3cn(-c4ccc(F)cc4C(=O)N(C)C(C)C)c4cncc(C)c34)C2)C1 (single isomer, unassigned) [Compound 175]
0.1 nM |  |  | 8 nM | 16 nM | CNC(=O)N1CCC(CN2CC[C@H](Cc3cn(-c4ccc(F)cc4C(=O)N(C)C(C)C)c4cncc(C)c34)C2)CC1 [Compound 168]
0.048 nM | 7 nM | 34 nM |  |  | Cc1cncc2c1c(C[C@@H]1CCN(CC3CCN(C(=O)N4CCOCC4)CC3)C1)cn2-c1ccc(F)cc1C(=O)N(C)C(C)C [Compound 174]
0.086 nM | 88 nM | 238 nM |  |  | Cc1cncc2c1c(C[C@@H]1CCN(C[C@@H]3CCCCN3)C1)cn2-c1ccc(F)cc1C(=O)N(C)C(C)C [Compound 148]
0.155 nM | 14 nM | 79 nM |  |  | Cc1cncc2c1c(C[C@H]1CCN(CC3CCN(C(=O)N(C)C)CC3)C1)cn2-c1ccc(F)cc1C(=O)N(C)C(C)C [Compound 170]
0.19 nM | 210 nM | > 1000 nM |  |  | Cc1cncc2c1c(CC1CN(CC3CCOCC3)C1)cn2-c1ccc(F)cc1[S@](=N)(=O)C(C)C (single isomer, unassigned) [Compound 167a]
0.08 nM | 142 nM | ~146 nM |  |  | CC(=O)N1CCC(CN2CC[C@@H](Cc3cn(-c4ccc(F)cc4C(=O)N4CCC[C@H]4CO)c4cncc(C)c34)C2)CC1 [Compound 323]
0.192 nM | 456 nM | ~623 nM |  |  | CNC(=O)[C@H]1CC[C@H]([C@H](C)N2CC(Cc3cn(-c4ccc(F)cc4C(=O)N(C)C(C)C)c4cncc(C)c34)C2)CC1 (single isomer, unassigned) [Compound 163]

SMILES | IC50 [1] | IC50 ([2]; Homo sapiens, MOLM-14, MOLM14) | IC50 ([3]; Homo sapiens, MOLM-14, 48 h) | IC50 ([2]; MOLM14) | IC50 [3]
CC(=O)N1CCC(CN2CC[C@@H](Cc3cn(-c4ccc(F)cc4C(=O)N(C)C(C)C)c4cncc(C)c34)C2)CC1 [Compound 51] | 0.042 nM | 8 nM |  |  | 
